{"source": "patent US9084782B2", "about": "“Chemical inhibitors of cholesterol biosynthesis and venous angiogenesis” (The Regents of the University of California, priority 2011, dated 2015)", "key": {"[1]": {"test_system": "Tg(kdrl:GFP) zebrafish embryos", "assay": "Caudal vein plexus (CVP) formation / venous angiogenesis in Tg(kdrl:GFP) zebrafish embryos", "type": "in vivo", "conditions": "for anti-angiogenetic activity of aplexone analogs (inhibition of CVP formation / venous angiogenesis): SAR study, compared with aplexone; for ranking in the angiogenesis test: compounds of FIG. 11", "description": "Images of GFP expression in Tg(kdrl:GFP) embryos were acquired using a Zeiss SV-11 epifluorescence microscope. Confocal images were acquired using a Carl Zeiss Laser Scanning Systems LSM510 equipped with 20× air, 20× water or 40× water immersion objectives. For single time point confocal images, embryos were anesthetized with 0.01% tricaine and embedded in 1% agarose. When capturing time-lapse confocal movies, embryos were mounted in 3.5% methylcellulose (Sigma-Aldrich) and imaged for 5 hrs on a heated stage at 28.5° C. The images obtained were analyzed using the Zeiss LSM Image Brower version 4 and Image J.\nA synthetic chemical library containing 168 compounds (Castellano et al., 2007) and 300 chemicals from Biomol International LP, consisting of 72 ion channel inhibitors (Cat No. 2805), 84 kinase/phosphatase inhibitors (Cat No. 2831), 84 orphan ligands (Cat No. 2825), and 60 endocannabinoids (Cat No. 2801) were screened. The synthetic small molecules were prepared through nucleophilic phosphine catalysis of allenoates (Zhu et al., 2003). Four Tg(kdrl:GFP) embryos were placed into each well of 96-well plates containing a 10 μM solution of each chemical compound dissolved in embryo buffer with 0.1% DMSO. The embryos were raised at 28.5° C. and examined for defects in blood vessel development at 1 and 2 days after treatment. Standard parameters such as numbers of somites and head to body angle were used to determine the stages of zebrafish embryos (Kimmel et al., 1995).\nAplexone treatment described in this study was carried out at a concentration of 10 μM starting at 10 hpf unless otherwise specified.\n8 ng tnnt2 MO (Gene Tools) (Sehnert et al., 2002), 3 nl of 4 mM GGTI-2133 (Calbiochem), 3 nl of 5 mM L744,832 (Calbiochem) and 1 nl of 2M mevalonate (Sigma-Aldrich) were injected into 1-2 cell stage embryos.\nThe library of 168 compounds^24 prepared through the nucleophilic phosphine catalysis of allenes were screened using Tg(kdrl:GFP) zebrafish. Four embryos were placed in each well of 96-well plates containing a 10 uM solution of each chemical compound dissolved in embryo buffer with 0.1% DMSO. The embryos were raised at 28.5° C. and defects in blood vessel development were examined at 1 and 2 days after fertilization."}, "[2]": {"test_system": "HMGCR pathway", "assay": "Cholesterol assay in embryo lysate (Amplex Red)", "type": "in vivo, zebrafish", "conditions": "relative to 0.4% DMSO control", "experimental": "The yolk was removed from embryos by vortexing in calcium-free Ringer's solution with 1 mM EDTA at 4° C. The embryos were then pelleted and washed with fresh calcium free Ringer's solution 5 times before being resuspended in cholesterol assay reaction buffer and were then lysed by sonication using a Sonifier 450 (Branson). Cholesterol levels in the embryo lysate were measured with an Amplex Red Cholesterol Assay Kit (Invitrogen) and Flex station II (Bucher Biotec). The total protein concentration of the embryo lysate was measured using a DC protein assay (Bio-Rad Laboratories) and SpectraMax plus (Molecular Devices)."}}}
{"smiles": "CC(=O)C1=CCC(c2ccccc2)N(S(=O)(=O)c2cccc(C)c2)C1", "note": "(stereo not shown) [Compound 19]", "values": [{"measurement": "anti-angiogenetic activity of aplexone analogs (inhibition of CVP formation / venous angiogenesis)", "setting": "[1]", "value": "without showing much decrease in the activity"}]}
{"smiles": "CC(C)C[C@H](NC(=O)c1ccc(NCc2cnc[nH]2)cc1-c1cccc2ccccc12)C(=O)O", "note": "[GGTI-2133, reference compound]", "values": [{"measurement": "CVP formation", "setting": "[1]; 3 nl of 4 mM GGTI-2133 injected at 1-2 cell stage, 48 hpf", "value": "CVP phenotypes reminiscent of aplexone treatment"}]}
{"smiles": "CC(=O)C1=CCC(c2ccccc2)N(S(C)(=O)=O)C1", "note": "(stereo not shown) [Compound 13]", "values": [{"measurement": "anti-angiogenetic activity of aplexone analogs (inhibition of CVP formation / venous angiogenesis)", "setting": "[1]", "value": "failed to inhibit the formation of CVP"}, {"measurement": "anti-angiogenetic activity of aplexone analogs (inhibition of CVP formation / venous angiogenesis)", "setting": "[1]; listed as AP13", "value": "normal venous angiogenesis"}, {"measurement": "embryonic cholesterol levels", "setting": "[2]", "value": "normal cholesterol levels"}]}
{"smiles": "CC(C)c1c(C(=O)Nc2ccccc2)c(-c2ccccc2)c(-c2ccc(F)cc2)n1CC[C@@H](O)C[C@@H](O)CC(=O)O", "note": "[atorvastatin, reference compound]", "values": [{"measurement": "CVP formation at suboptimal level", "setting": "[1]; 2 μM single agent", "value": "normal CVP"}, {"measurement": "CVP formation", "setting": "[1]; atorvastatin-treated embryos, from 10 hpf, imaged at 48 hpf", "value": "phenotypes similar to those observed in embryos exposed to aplexone"}, {"measurement": "embryonic cholesterol levels", "setting": "[2]", "value": "reduce cholesterol level significantly"}]}
{"smiles": "CC(=O)C1=CCC(c2ccc(C)o2)N(S(=O)(=O)c2ccc(C)cc2)C1", "note": "(stereo not shown) [Compound 35]", "values": [{"measurement": "anti-angiogenetic activity of aplexone analogs (inhibition of CVP formation / venous angiogenesis)", "setting": "[1]", "value": "inactive"}]}
{"smiles": "CC(=O)C1=CCC(c2ccccc2)N(S(=O)(=O)c2ccccc2)C1", "note": "(stereo not shown) [Compound 17]", "values": [{"measurement": "anti-angiogenetic activity of aplexone analogs (inhibition of CVP formation / venous angiogenesis)", "setting": "[1]", "value": "showed inhibitory activity for venous angiogenesis"}]}
{"smiles": "CC[C@H](C)[C@@H](CO[C@@H](Cc1ccccc1)C(=O)N[C@@H](CCS(C)(=O)=O)C(=O)OC(C)C)NC[C@@H](N)CS", "note": "[L744,832, reference compound]", "values": [{"measurement": "CVP formation", "setting": "[1]; 3 nl of 5 mM L744,832 injected at 1-2 cell stage, 48 hpf", "value": "does not affect the formation of the CVP"}]}
{"smiles": "CC(=O)C1=CCC(c2ccccc2)NC1", "note": "(stereo not shown) [Compound 11]", "values": [{"measurement": "anti-angiogenetic activity of aplexone analogs (inhibition of CVP formation / venous angiogenesis)", "setting": "[1]", "value": "failed to inhibit the formation of CVP"}]}
{"smiles": "C=CCCC(=O)C1=CCC(c2ccccc2)N(S(=O)(=O)c2ccc(C)cc2)C1", "note": "(stereo not shown) [Compound 8]", "values": [{"measurement": "anti-angiogenetic activity of aplexone analogs (inhibition of CVP formation / venous angiogenesis)", "setting": "[1]", "value": "showed the bioactivity of aplexone albeit to a lesser extent"}]}
{"smiles": "CC(O)(CCO)CC(=O)O", "note": "(stereo not shown) [mevalonate, reference compound]", "values": [{"measurement": "effect on aplexone's inhibition of CVP formation", "setting": "[1]; 1 nl of 2M mevalonate injected, 5 μM aplexone from 2 hpf", "value": "blocks the inhibitory effects of aplexone"}]}
{"smiles": "CC(=O)C1=CCCN(S(=O)(=O)c2ccc(C)cc2)C1", "note": "[Compound 16]", "values": [{"measurement": "anti-angiogenetic activity of aplexone analogs (inhibition of CVP formation / venous angiogenesis)", "setting": "[1]", "value": "developed a single-lumen caudal vein like aplexone, albeit in lower efficiency"}]}
{"smiles": "CC(=O)C1=CCC(c2ccccc2)N(Cc2ccccc2)C1", "note": "(stereo not shown) [Compound 12]", "values": [{"measurement": "anti-angiogenetic activity of aplexone analogs (inhibition of CVP formation / venous angiogenesis)", "setting": "[1]", "value": "failed to inhibit the formation of CVP"}]}
{"smiles": "CC(=O)C1=CCC(c2ccccc2)N(S(=O)(=O)c2ccc(Cl)cc2)C1", "note": "(stereo not shown) [Compound 20]", "values": [{"measurement": "anti-angiogenetic activity of aplexone analogs (inhibition of CVP formation / venous angiogenesis)", "setting": "[1]", "value": "showed inhibitory activity for venous angiogenesis"}]}
{"smiles": "CC(=O)C1=CCC(c2cccn2C)N(S(=O)(=O)c2ccc(C)cc2)C1", "note": "(stereo not shown) [Compound 36]", "values": [{"measurement": "anti-angiogenetic activity of aplexone analogs (inhibition of CVP formation / venous angiogenesis)", "setting": "[1]", "value": "inactive"}]}
{"smiles": "Cc1ccc(S(=O)(=O)N2CC(C(C)O)=CC[C@@H]2c2ccccc2)cc1", "note": "(stereo partly shown) [Compound 6]", "values": [{"measurement": "anti-angiogenetic activity of aplexone analogs (inhibition of CVP formation / venous angiogenesis)", "setting": "[1]", "value": "did not inhibit the CVP formation"}]}
{"smiles": "CC(=O)C1=CCC(c2cccc3ccccc23)N(S(=O)(=O)c2ccc(C)cc2)C1", "note": "(stereo not shown) [Compound 37]", "values": [{"measurement": "anti-angiogenetic activity of aplexone analogs (inhibition of CVP formation / venous angiogenesis)", "setting": "[1]", "value": "inactive"}]}
{"smiles": "c1ccc2c(-c3ccncc3)c[nH]c2c1", "note": "[Rockout, reference compound]", "values": [{"measurement": "CVP formation", "setting": "[1]; 50 μM Rockout, 48 hpf", "value": "recapitulated the caudal vein phenotype of aplexone treatment"}]}
{"smiles": "CC(=O)C1=CCC(c2ccc(Cl)cc2)N(S(=O)(=O)c2ccc(C)cc2)C1", "note": "(stereo not shown) [Compound 25]", "values": [{"measurement": "anti-angiogenetic activity of aplexone analogs (inhibition of CVP formation / venous angiogenesis)", "setting": "[1]", "value": "diminished the antiangiogenic activity"}]}
{"smiles": "CC(=O)C1=CCC(c2ccc(Cl)c(Cl)c2)N(S(=O)(=O)c2ccc(C)cc2)C1", "note": "(stereo not shown) [Compound 31]", "values": [{"measurement": "anti-angiogenetic activity of aplexone analogs (inhibition of CVP formation / venous angiogenesis)", "setting": "[1]", "value": "not active"}]}
{"smiles": "CC(=O)C1=CCC(c2cccs2)N(S(=O)(=O)c2ccc(C)cc2)C1", "note": "(stereo not shown) [Compound 33]", "values": [{"measurement": "anti-angiogenetic activity of aplexone analogs (inhibition of CVP formation / venous angiogenesis)", "setting": "[1]", "value": "active"}, {"measurement": "ranking in the angiogenesis test", "setting": "[1]", "value": "most active"}]}
{"smiles": "CC(=O)C1=CCC(c2ccco2)N(S(=O)(=O)c2ccc(C)cc2)C1", "note": "(stereo not shown) [Compound 34]", "values": [{"measurement": "anti-angiogenetic activity of aplexone analogs (inhibition of CVP formation / venous angiogenesis)", "setting": "[1]", "value": "inactive"}]}
{"smiles": "CC(=O)C1=CCC(c2ccc(F)cc2)N(S(=O)(=O)c2ccc(C)cc2)C1", "note": "(stereo not shown) [Compound 24]", "values": [{"measurement": "anti-angiogenetic activity of aplexone analogs (inhibition of CVP formation / venous angiogenesis)", "setting": "[1]", "value": "abolished the biological activity"}]}
{"smiles": "CC(=O)C1=CCC(c2ccc3c(c2)OCO3)N(S(=O)(=O)c2ccc(C)cc2)C1", "note": "(stereo not shown) [Compound 32]", "values": [{"measurement": "anti-angiogenetic activity of aplexone analogs (inhibition of CVP formation / venous angiogenesis)", "setting": "[1]", "value": "not active"}]}
{"smiles": "CC(=O)C1=CCC(c2ccc(C)cc2)N(S(=O)(=O)c2ccc(C)cc2)C1", "note": "(stereo not shown) [Compound 26]", "values": [{"measurement": "anti-angiogenetic activity of aplexone analogs (inhibition of CVP formation / venous angiogenesis)", "setting": "[1]", "value": "active"}, {"measurement": "ranking in the angiogenesis test", "setting": "[1]", "value": "most active"}]}
{"smiles": "CC(=O)C1=CCC(c2ccccc2)N(S(=O)(=O)c2ccccc2C)C1", "note": "(stereo not shown) [Compound 18]", "values": [{"measurement": "anti-angiogenetic activity of aplexone analogs (inhibition of CVP formation / venous angiogenesis)", "setting": "[1]", "value": "without showing much decrease in the activity"}]}
